The text below walks through data of patent US12667103B2, “Methods and compositions comprising herbicidally active compounds and thiocyanate compounds for controlling weed growth” (MUSTGROW BIOLOGICS CORP., priority 2020, dated 2026).

This assay has as its system weed plants. In words: Field trial of weed control: individual weed plants counted on test plots after herbicide treatment. Format: in vivo. The settings on record: for Incidence of weeds (average count of weed plants per test plot): MustGrow SCN 24.3 kg/acre. The procedure:
A total of 8 herbicide treatments were run in a field trial as follows:
RT540®, Bayer CropScience contains 540 g/L of glyphosate as the active ingredient. MustGrow SCN consists of pure commercially purchased thiocyanate in powder form. RT540 and MustGrow SCN were diluted with 10 parts of water and applied using a backpack sprayer to each of the test plots located in central Saskatchewan at the rate indicated in Table 2. Each treatment consisted of triplicate experimental plots (4×20 ft). Weed plant growth was monitored by counting individual weed plants present on each of the test plots over a period of 5 weeks from application.

For `O=C(O)CNCP(=O)(O)O` [glyphosate, N-(phosphomethyl)glycine, reference compound], the “Effectiveness in limiting the incidence of weeds, in words” value (under the conditions of this trial, RT540 0.1-1 L/acre) is on record as “marginally effective”.
On to thiocyanate [MustGrow SCN], for which the “Incidence of weeds (average count of weed plants per test plot)” value (week 1) was 8; the “Incidence of weeds (average count of weed plants per test plot)” value (week 2) worked out at 15; the “Incidence of weeds (average count of weed plants per test plot)” value (week 3) is recorded as 75; the “Incidence of weeds (average count of weed plants per test plot)” value (week 4) is 155; the “Incidence of weeds (average count of weed plants per test plot)” value (week 5) amounted to 174.
